According to ChEMBL document CHEMBL1132471, “Vancomycin binding to low-affinity ligands: delineating a minimum set of interactions necessary for high-affinity binding” (J Med Chem, 1999):

Experiments:
[1] = Affinity for Vancomycin (Exp II)
[2] = Affinity for Vancomycin (Exp I)

Affinity [1] [M⁻¹]	Affinity [2] [M⁻¹]	SMILES
300		CC(=O)N[C@H](C)C(=O)O
80		CC(=O)NCC(=O)O
30	15	CC(=O)O
80		C[C@@H](O)C(=O)O
	40	CC(=O)O[C@H](C)C(=O)O
